In US20090227587A1, “Pyrimidines as inhibitors of phosphoinositide-3-kinases (PI3K)” (Warner-Lambert Company LLC, priority 2003, published 2009) one finds IC50 data, which are given here for 15 compounds.

T1 sequence (P48736 whole entry, species assumed): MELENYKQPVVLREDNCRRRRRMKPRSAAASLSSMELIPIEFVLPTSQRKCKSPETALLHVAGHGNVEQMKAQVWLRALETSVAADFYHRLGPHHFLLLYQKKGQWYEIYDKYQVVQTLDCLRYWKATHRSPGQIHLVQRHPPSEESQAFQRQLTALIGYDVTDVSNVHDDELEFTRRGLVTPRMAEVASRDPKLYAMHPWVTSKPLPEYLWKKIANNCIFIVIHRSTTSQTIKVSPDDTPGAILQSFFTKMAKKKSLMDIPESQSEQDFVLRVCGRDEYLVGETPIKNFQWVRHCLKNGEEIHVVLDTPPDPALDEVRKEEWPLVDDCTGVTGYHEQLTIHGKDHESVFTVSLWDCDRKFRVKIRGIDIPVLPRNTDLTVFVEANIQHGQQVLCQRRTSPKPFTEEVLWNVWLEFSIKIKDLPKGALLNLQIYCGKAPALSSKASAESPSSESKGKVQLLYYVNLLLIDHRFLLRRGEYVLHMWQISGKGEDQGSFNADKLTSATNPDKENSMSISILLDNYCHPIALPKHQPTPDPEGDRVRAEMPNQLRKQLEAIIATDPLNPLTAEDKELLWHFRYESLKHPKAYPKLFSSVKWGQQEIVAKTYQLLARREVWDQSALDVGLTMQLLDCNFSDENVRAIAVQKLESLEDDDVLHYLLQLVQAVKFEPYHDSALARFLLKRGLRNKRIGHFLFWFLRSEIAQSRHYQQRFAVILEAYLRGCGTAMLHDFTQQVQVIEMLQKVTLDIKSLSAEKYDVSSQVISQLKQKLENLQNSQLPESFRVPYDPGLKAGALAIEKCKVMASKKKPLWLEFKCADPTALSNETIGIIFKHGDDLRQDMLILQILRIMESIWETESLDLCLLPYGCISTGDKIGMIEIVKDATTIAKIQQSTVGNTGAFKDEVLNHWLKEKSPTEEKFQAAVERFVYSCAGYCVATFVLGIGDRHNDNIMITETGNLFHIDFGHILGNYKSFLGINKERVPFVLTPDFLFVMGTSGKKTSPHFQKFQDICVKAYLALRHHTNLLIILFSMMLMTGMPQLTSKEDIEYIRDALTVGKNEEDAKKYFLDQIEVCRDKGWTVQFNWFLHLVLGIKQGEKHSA
T1 sequence (Q8WYR1 whole entry partner, species assumed): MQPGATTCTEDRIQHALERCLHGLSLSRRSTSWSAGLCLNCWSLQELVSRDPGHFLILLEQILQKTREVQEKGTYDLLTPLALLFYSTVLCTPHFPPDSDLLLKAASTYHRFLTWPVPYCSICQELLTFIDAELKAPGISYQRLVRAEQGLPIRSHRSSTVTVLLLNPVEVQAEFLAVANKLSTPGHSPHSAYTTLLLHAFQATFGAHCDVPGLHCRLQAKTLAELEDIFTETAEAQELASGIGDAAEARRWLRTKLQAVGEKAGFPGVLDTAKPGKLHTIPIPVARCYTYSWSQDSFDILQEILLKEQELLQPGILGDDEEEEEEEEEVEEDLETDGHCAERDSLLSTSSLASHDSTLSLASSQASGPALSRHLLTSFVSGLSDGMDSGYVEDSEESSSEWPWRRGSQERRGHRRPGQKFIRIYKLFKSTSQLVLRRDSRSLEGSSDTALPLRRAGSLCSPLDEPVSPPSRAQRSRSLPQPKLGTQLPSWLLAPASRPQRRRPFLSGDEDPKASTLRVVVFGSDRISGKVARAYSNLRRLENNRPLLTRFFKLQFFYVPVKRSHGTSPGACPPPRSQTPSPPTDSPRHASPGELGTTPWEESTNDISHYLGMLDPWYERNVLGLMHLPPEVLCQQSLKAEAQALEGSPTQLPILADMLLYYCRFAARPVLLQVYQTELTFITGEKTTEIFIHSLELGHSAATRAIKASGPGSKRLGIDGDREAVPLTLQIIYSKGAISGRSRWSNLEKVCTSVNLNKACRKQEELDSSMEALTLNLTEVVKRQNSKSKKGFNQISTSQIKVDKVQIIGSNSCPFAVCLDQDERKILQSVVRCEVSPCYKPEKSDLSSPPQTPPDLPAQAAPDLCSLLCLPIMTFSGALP

The assay has as its target T1, p101/p110γ protein (PI3Kγ) (Homo sapiens, UniProt P48736).
T1 construct: HA; made in house; host or cells: Spodoptera frugiperda (Sf9) cells, baculovirus co-infection
In words: PI3Kγ in vitro kinase assay. The format is biochemical. The following applies: purified recombinant p101/p110γ with G protein β1/γ2 subunits, 20 μM ATP, PIP2 lipid micelles. Here is the method: Spodtera frugiperda cells, grown in ESF921 media, were co-infected with baculovirus expressing a glu-tagged p101 and baculovirus expressing an HA-tagged p110γ, at a 3:1 ratio of p101 baculovirus to p110γ baculovirus. Sf9 cells were grown to 1×10^7 total cells/mL in 10 L bioreactors and harvested 48-72 hours post infection. Samples of infected cells were then tested for expression of p101/p110γ PI3 kinase by immunoprecipitation and Western Blot analysis methods (see below).
To purify PI3Kγ, 4 volumes of room temperature hypotonic lysis buffer (1 mM MgCl2, 1 mM DTT, 5 mM EGTA, 1 mM Pefabloc, 0.5 μM aprotinin, 5 μM leupeptin, 2 μM pepstatin, 5 μM E64, pH 8) per gram of cell paste, was poured onto frozen cell pellets with stirring, then lysed in a nitrogen “bomb” at 400 psi (599HC T316, Parr Instrument Co, Moline, Ill.). NaCl was added to 150 mM, and sodium cholate was added to 1% and mixed for another 45 minutes. The lysates were clarified by centrifugation for 25 minutes at 14,000 rpm. The lysates were then loaded over anti-glu-linked Protein-G Sepaharose beads (Covance Research Products, Richmond, Calif.) using 20 mL resin/50 g cell paste. The column was washed with 15 volumes of wash buffer (1 mM DTT, 0.2 mM EGTA, 1 mM Pefabloc, 0.5 μM aprotinin, 5 μM leupeptin, 2 μM pepstatin, 5 μM E64, 150 mM NaCl, 1% sodium cholate, pH 8). PI3Kγ was eluted with 6 column volumes of wash buffer that contain 100 μg/mL of a peptide that competes for binding of the glu tag. The column fractions with the eluted protein (determined by taking OD280 readings) were collected and dialyzed in 0.2 mM EGTA, 1 mM DTT, 1 mM Pefabloc, 5 μM leupeptin, 0.5% sodium cholate, 150 mM NaCl, and 50% glycerol, pH 8. The fractions were stored at −80° C. until further use.
Spodtera frugiperda cells were coinfected with baculovirus expressing a glu-tagged G protein β1 and baculovirus expressing a G protein […], at a 1:1 ratio of glu-tagged G protein […] baculovirus to G protein β2 baculovirus. Sf9 cells are grown in 10 L bioreactors and harvested 48-72 hours post infection. Samples of infected cells were tested for G protein β1/β2 expression by Western Blot analysis, as described below. Cell lysates were homogenized and loaded onto a column of glu-tagged beads as in Biological Example 1 and competed off the column with a glu peptide and processed as described in Biological Example 1.
The inhibitory properties of the compounds in Table 1 were assayed in an in vitro PI3K assay. In a 96-well polypropylene plate, each well was spotted with 2 μL of 50 times the desired final concentration of compound in DMSO. Purified recombinant p101/p110γ protein (0.03 μg; ˜2.7 nM) and G protein β1/γ2 subunits (0.09 μg; ˜57.7 nM) for each reaction was combined in the assay buffer (30 mM HEPES, 100 mM NaCl, 1 mM EGTA, and 1 mM DTT). ATP and [γ-^32P-ATP] (0.09 μCi) were added to this mixture so that the final ATP concentration in the reaction was 20 μM. Lipid micelles were formed by sonicating phosphatidylinositol-4,5-diphosphate (PIP2), phosphatidylethanolamine (PE), and Na-cholate in the assay buffer for 10 minutes, adding MgCl2 and incubating on ice for 20 minutes, for final concentrations of 25 μM PIP2, 300 μM PE, 0.02% Na-cholate, and 10 mM MgCl2 in the reaction. The reactions were started by adding equal volumes lipid and enzyme mixture in a total volume of 50 μL, allowed to run for 20 minutes at room temperature, and stopped with 100 μL 75 mM H3PO4. The lipid product was transferred to a glass fiber filter plate and washed with 75 mM H3PO4 several times. The presence of radioactive lipid product (PIP3) was measured by adding Wallac Optiphase mix to each well and counting in a Wallac 1450 Trilux plate reader (PerkinElmer Life Sciences Inc., Boston, Mass. 02118). The IC50 for each compound tested is reported in μM in the Tables above.
The term IC50 denotes the midpoint of a concentration-inhibition curve. In the case of `CC1(C)CCCC(Oc2nc(N3CCOCC3)ncc2C(=O)Nc2nn[nH]n2)C1` (stereo not drawn) [Example 9, 4-(3,3-Dimethyl-cyclohexyloxy)-2-morpholin-4-yl-pyrimidine-5-carboxylic acid (2H-tetrazol-5-yl)-amide], the IC50 stood at 1.36 µM.

For `O=C(Nc1nnn[nH]1)c1cnc(N2CCOCC2)nc1NC1CCCC1` [Example 19, 4-Cyclopentylamino-2-morpholin-4-yl-pyrimidine-5-carboxylic acid (1H-tetrazol-5-yl)-amide], the IC50 worked out at 32.7 µM.

For the compound `COCCOc1nc(N2CCOCC2)ncc1C(=O)Nc1nn[nH]n1` [Example 8, 4-(2-Methoxy-ethoxy)-Z-morpholin-4-yl-pyrimidine-5-carboxylic acid (2H-tetrazol-5-yl)-amide], the IC50 was 2.32 µM.

Regarding `CC(C)Oc1nc(N2CCOCC2)ncc1C(=O)Nc1nn[nH]n1` [Example 3, 4-Isopropoxy-2-morpholin-4-yl-pyrimidine-5-carboxylic acid (2H-tetrazol-5-yl)-amide], the IC50 was 87.5 µM.

Consider `O=C(Nc1nn[nH]n1)c1cnc(N2CCOCC2)nc1OC1CCCC1` [Example 2, 4-Cyclopentyloxy-2-morpholin-4-yl-pyrimidine-5-carboxylic acid (2H-tetrazol-5-yl)-amide], for which the IC50 was 1.54 µM.

`O=C(Nc1nn[nH]n1)c1cnc(N2CCOCC2)nc1OC1CCCCCCC1` [Example 5, 4-Cyclooctyloxy-2-morpholin-4-yl-pyrimidine-5-carboxylic acid (2H-tetrazol-5-yl)-amide]: the 50% inhibitory concentration (IC50) stood at 0.502 µM.

Take `O=C(Nc1nn[nH]n1)c1cnc(N2CCOCC2)nc1OC1C2CC3CC(C2)CC1C3` (stereo not drawn) [Example 11, 4-(Adamantan-2-yloxy)-2-morpholin-4-yl-pyrimidine-5-carboxylic acid (2H-tetrazol-5-yl)-amide]: the IC50 amounted to 0.485 µM.

In the case of `Cc1nc(N2CCOCC2)nc(OC2CCCCCC2)c1C(=O)Nc1nn[nH]n1` [Example 22, 4-Cycloheptyloxy-6-methyl-2-morpholin-4-yl-pyrimidine-5-carboxylic acid (2H-tetrazol-5-yl)-amide], the IC50 was determined as 8.44 µM.

With `O=C(Nc1nnn[nH]1)c1cnc(N2CCOCC2)nc1NC1CCCCC1` [Example 21, 4-Cyclohexylamino-2-morpholin-4-yl-pyrimidine-5-carboxylic acid (1H-tetrazol-5-yl)-amide], the IC50 was found to be 28.6 µM.

On to `O=C(Nc1nn[nH]n1)c1cnc(N2CCOCC2)nc1OCCC1CCCCC1` [Example 6, 4-(2-Cyclohexyl-ethoxy)-2-morpholin-4-yl-pyrimidine-5-carboxylic acid (2H-tetrazol-5-yl)-amide], for which the IC50 was 10.1 µM.

Consider `O=C(Nc1nn[nH]n1)c1cnc(N2CCOCC2)nc1OCC1CCCCC1` [Example 7, 4-Cyclohexylmethoxy-2-morpholin-4-yl-pyrimidine-5-carboxylic acid (2H-tetrazol-5-yl)-amide], for which the IC50 was determined as 1.83 µM.

As for `CC1(COc2nc(N3CCOCC3)ncc2C(=O)Nc2nn[nH]n2)CC1` [Example 15, 4-(1-Methyl-cyclopropylmethoxy)-2-morpholin-4-yl-pyrimidine-5-carboxylic acid (2H-tetrazol-5-yl)-amide], the IC50 is 1.69 µM.

Regarding `O=C(Nc1nnn[nH]1)c1cnc(N2CCOCC2)nc1NCc1ccccc1` [Example 20, 4-Benzylamino-2-morpholin-4-ylpyrimidine-5-carboxylic acid (1H-tetrazol-5-yl)-amide], the half-inhibitory concentration (IC50) was 39.1 µM.

Turning to `CC(C)C(C)Oc1nc(N2CCOCC2)ncc1C(=O)Nc1nn[nH]n1` (stereo not drawn) [Example 14, 4-(1,2-Dimethyl-propoxy)-2-morpholin-4-yl-pyrimidine-5-carboxylic acid (2H-tetrazol-5-yl)-amide], the IC50 amounted to 1.16 µM.

Take `O=C(Nc1nn[nH]n1)c1cnc(N2CCOCC2)nc1OC1CCCCC1` [Example 4, 4-Cyclohexyloxy-2-morpholin-4-yl-pyrimidine-5-carboxylic acid (2H-tetrazol-5-yl)-amide]: the IC50 stood at 1.74 µM.
